Assay results: PubChem BioAssay (NCI)
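Following 48 hours of exposure in 96-well plates, responses at five concentrations were used to interpolate endpoints linearly. TGI: concentration producing complete growth inhibition.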

Assays:
Assay in all cases: NCI anticancer screen, dose series, 48 h
[1] = system: A498 renal
[2] = system: EKVX NSCLC
[3] = system: HCC-2998 colon
[4] = system: HT29 colon
[5] = system: K-562 leukemia
[6] = system: KM12 colon
[7] = system: LOX IMVI melanoma
[8] = system: NCI-H226 lung
[9] = system: NCI-H23 lung
[10] = system: NCI-H522 lung
[11] = system: OVCAR-3 ovarian
[12] = system: OVCAR-4 ovarian
[13] = system: OVCAR-5 ovarian
[14] = system: RXF 393 renal
[15] = system: SF-268 CNS
[16] = system: SF-295 CNS
[17] = system: SK-MEL-2 melanoma
[18] = system: SK-MEL-28 melanoma
[19] = system: UACC-257 melanoma
[20] = system: UO-31 renal

Measured: TGI

CCCN1C(=O)/C(=C(/O)C(=O)OCC)C(c2ccc(OC)c(OC)c2)C1=O (stereo not given)
> 100 µM: [1] | [2] | [3] | [4] | [5] | [6] | [7] | [8] | [9] | [10] | [12] | [13] | [14] | [15] | [16] | [17] | [18] | [19] | [20]
> 66.1 µM: [11]

Cc1[nH]c(=O)[nH]c(=O)c1C(=O)N(CCO)Cc1ccccc1
43.9 µM: [8]
99.7 µM: [12]
83.6 µM: [14]
> 100 µM: [1] | [2] | [3] | [4] | [5] | [6] | [7] | [9] | [10] | [11] | [13] | [15] | [16] | [17] | [18] | [19] | [20]
